Measurements published in patent US20220107328A1, “METHODS OF TREATING LIVER DISEASES” (Camp4 Therapeutics Corporation, priority 2018, published 2022).

Columns and labels:
PNPLA3 mRNA [1] = test: qRT-PCR of PNPLA3 mRNA in compound-treated mouse hepatocytes; assay type: cell-based; settings: for Relative PNPLA3 mRNA levels: mouse hepatocytes, 1 μM, normalized to ACTB
Experimental: (§1) Analysis of the fold changes in expression as measured by qRT-PCR were performed using the technique below. The control was DMSO, and the treatment was the selected compound (CPD). The internal control was GAPDH or B-Actin (or otherwise indicated), and the gene of interest is the target. First, the averages of the 4 conditions were calculated for normalization: DMSO:GAPDH, DMSO:Target, CPD: GAPDH, and CPD:Target. Next, the ΔCT of both control and treatment were calculated to normalize to internal control (GAPDH) using (DMSO:Target)−(DMSO:GAPDH)=ΔCT control and (CPD:Target)−(CPD: GAPDH)=ΔCT experimental. Then, the ΔΔCT was calculated by ΔCT experimental−ΔCT control. The Expression Fold Change (or Relative Quantification, abbreviated as RQ) was calculated by 2−(ΔΔCT) (2-fold expression change was shown by RNA-Seq results provided herein).
Compounds were tested at concentrations ranging from 0.01 μM to 50 μM. […] PNPLA3 levels were normalized to the level of a house keeping gene ACTB.

PNPLA3 mRNA [2] = test: qRT-PCR of PNPLA3 mRNA in compound-treated primary human hepatocytes; settings: for Relative PNPLA3 mRNA expression: primary human hepatocytes, Table 35; for mrna remaining at 1 µM / mrna remaining at 10 µM: Homo sapiens, Hepatocyte
Experimental: Cryopreserved hepatocytes were cultured in plating media for 16 hours, transferred to maintenance media for 4 hours. Cultured on serum-free media for 2 hours, then a compound was added. The hepatocytes were maintained on the serum-free media for 16 hours prior to gene expression analysis.
Human hepatocytes cultured as described above were plated in 24-well format, adding 375,000 cells per well in a volume of 500 μl plating medium. Four hours before treatment, cells were washed with PBS and the medium was changed to either: fresh maintenance medium (complete) or modified maintenance medium.
Compound stocks were prepared at 1000× final concentration and added in a 2-step dilution to the medium to reduce risk of a compound precipitating out of solution when added to the cells, and to ensure reasonable pipetting volumes. One at a time, each compound was first diluted 10-fold in warm (about 37° C.) modified maintenance medium (initial dilution=ID), mixed by vortexing, and the ID was diluted 100-fold into the cell culture (e.g. 5.1 μl into 1 well of a 24-well plate containing 0.5 mL medium). The plate was mixed by carefully swirling and after all wells were treated and returned to the incubator overnight. If desired, separate plates/wells were treated with vehicle-only controls and/or positive controls. If using multi-well plates, controls were included on each plate. After about 18 hours, cells were harvested for further analysis, e.g., ChIP-seq, RNA-seq, ATAC-seq, etc.
as §1
The aim of the validation studies was to test the identified compounds from key pathways, and expand the compound franchise to identify other potential hits. Candidate compounds were subjected to validation with qRT-PCR in human hepatocytes. qRT-PCR was performed on samples of primary human hepatocytes from a second donor treated with the candidate compounds. Compounds were tested at concentrations ranging from 0.01 μM to 50 μM, with the majority tested at 10 μM.
Primary human hepatocytes and stellate cells were also incubated with inhibitors of the TGFβ pathway and PNPLA3 gene expression changes assessed via qRT-PCR as previously described. In addition, primary hepatocytes and stellate cells were treated with TGFβ-ligand alone or with selected the small molecule inhibitors for 18 hours and subsequently harvested. for gene expression assays.
The other set was harvest for mRNA processing as previously described.

PNPLA3 mRNA [3] = test: qRT-PCR of PNPLA3 mRNA in human primary hepatic stellate cells; assay type: cell-based; settings: for Relative PNPLA3 mRNA expression: stellate cells, Table 37

Structure (SMILES)	Relative PNPLA3 mRNA levels (PNPLA3 mRNA [1])	PNPLA3 mRNA remaining after treatment compared to untreated cells (PNPLA3 mRNA [1]; Mouse hepatocytes, 10 uM)	PNPLA3 mRNA remaining after treatment compared to untreated cells (PNPLA3 mRNA [2]; H Hep Donor-2, 10 uM)	PNPLA3 mRNA remaining after treatment compared to untreated cells (PNPLA3 mRNA [3]; Human Stellate, 1 uM)	PNPLA3 mRNA remaining after treatment compared to untreated cells (PNPLA3 mRNA [3]; Human Stellate, 10 uM)	PNPLA3 mRNA remaining after treatment compared to untreated cells (PNPLA3 mRNA [2]; H Hep Donor-3, 10 uM)	PNPLA3 mRNA remaining after treatment compared to untreated cells (PNPLA3 mRNA [2]; H Hep Donor-4, 10 uM)	PNPLA3 mRNA remaining after treatment compared to untreated cells (PNPLA3 mRNA [2]; H Hep Donor-5, 1 uM)	PNPLA3 mRNA remaining after treatment compared to untreated cells (PNPLA3 mRNA [2]; H Hep Donor-5, 10 uM)	further results
Cn1cc(-c2nc(N[C@@H]3CCCC[C@@H]3N)c(F)c3c2C(=O)NC3)cn1 [TAK-659]	0.31 ± 0.12									Relative PNPLA3 mRNA levels (PNPLA3 mRNA [2]; Syk pathway inhibitors, 10 μM, human hepatocytes, normalized to B2M, mean of three replicates ± standard deviation): 0.44 ± 0.11
COc1cc2c(cc1OC)CN(C(=O)/C=C/c1c(-c3ccccc3)n(C)c3ncccc13)CC2 [SIS3]		0.50	0.55							Relative PNPLA3 mRNA expression (PNPLA3 mRNA [3]; 0.01 uM): 1.49 ± 0.09; Relative PNPLA3 mRNA expression (PNPLA3 mRNA [3]; 0.1 uM): 1.38 ± 0.19; Relative PNPLA3 mRNA expression (PNPLA3 mRNA [3]; 1 uM): 0.77 ± 0.03; Relative PNPLA3 mRNA expression (PNPLA3 mRNA [3]; 10 uM): 7.95 ± 2.29; PNPLA3 mRNA remaining after treatment compared to untreated cells (PNPLA3 mRNA [2]; H Hep Donor-1, 10 uM): 0.2; Relative PNPLA3 mRNA expression (PNPLA3 mRNA [2]; 3.3 uM): 1.358 ± 0.3303; Relative PNPLA3 mRNA expression (PNPLA3 mRNA [2]; 10 uM): 1.011 ± 0.2574
CCn1c(=O)c(-c2cc[nH]n2)cc2c(C)nc(N)nc21 [Voxtalisib]	0.31 ± 0.08									
FC(F)(F)c1ccc(/C=C/c2nc(COc3ccc(CCCCn4ccnn4)cc3)co2)cc1 [Mubritinib (TAK 165)]		0.09	0.39	0.2	0.78	0.2	0.4	0.6	0.25	PNPLA3 mRNA remaining after treatment compared to untreated cells (PNPLA3 mRNA [1]; Mouse hepatocytes, 1 uM): 1.12; PNPLA3 mRNA remaining after treatment compared to untreated cells (PNPLA3 mRNA [2]; H Hep Donor-4, 1 uM): 0.55
CC(C)c1cc(CNc2nc(Nc3cc(C4CC4)[nH]n3)cc(N3CCN(C)CC3)n2)on1 [XL228]										mrna remaining at 1 µM (PNPLA3 mRNA [1]; Hepatocyte, Mouse hepatocytes, 1 uM, read-out: PNPLA3 mRNA remaining after treatment compared to untreated cells): 40%; mrna remaining at 10 µM (PNPLA3 mRNA [1]; Hepatocyte, Mouse hepatocytes, 10 uM, read-out: PNPLA3 mRNA remaining after treatment compared to untreated cells): 12%; mrna remaining at 1 µM (PNPLA3 mRNA [3]; Human Stellate, 1 uM, read-out: PNPLA3 mRNA remaining after treatment compared to untreated cells): 80%; mrna remaining at 10 µM (PNPLA3 mRNA [3]; Human Stellate, 10 uM, read-out: PNPLA3 mRNA remaining after treatment compared to untreated cells): 70%; mrna remaining at 1 µM (PNPLA3 mRNA [2]; read-out: PNPLA3 mRNA remaining after treatment compared to untreated cells, H Hep Donor-1, 1 uM (stated in cell)): 40%; mrna remaining at 10 µM (PNPLA3 mRNA [2]; read-out: PNPLA3 mRNA remaining after treatment compared to untreated cells, H Hep Donor-3, 10 uM): 30%; mrna remaining at 1 µM (PNPLA3 mRNA [2]; read-out: PNPLA3 mRNA remaining after treatment compared to untreated cells, H Hep Donor-4, 1 uM): 55%; mrna remaining at 10 µM (PNPLA3 mRNA [2]; read-out: PNPLA3 mRNA remaining after treatment compared to untreated cells, H Hep Donor-4, 10 uM): 55%; mrna remaining at 1 µM (PNPLA3 mRNA [2]; read-out: PNPLA3 mRNA remaining after treatment compared to untreated cells, H Hep Donor-5, 1 uM): 55%; mrna remaining at 10 µM (PNPLA3 mRNA [2]; read-out: PNPLA3 mRNA remaining after treatment compared to untreated cells, H Hep Donor-5, 10 uM): 25%
CN(c1ncccc1CNc1nc(Nc2ccc3c(c2)CC(=O)N3)ncc1C(F)(F)F)S(C)(=O)=O [PF-00562271]		0.27	0.34	1	0.18	0.2	0.5	1	0.25	
COc1cccc2cc(-c3nc([C@H]4CC[C@H](C(=O)O)CC4)n4ncnc(N)c34)[nH]c12 [OSI-027/ASP7486]		0.35		0.2	0.65	0.55	0.38	0.5	0.2	PNPLA3 mRNA remaining after treatment compared to untreated cells (PNPLA3 mRNA [1]; Mouse hepatocytes, 1 uM): 0.3; PNPLA3 mRNA remaining after treatment compared to untreated cells (PNPLA3 mRNA [2]; H Hep Donor-1, 1 uM (stated in cell)): 0.3 (1 uM); PNPLA3 mRNA remaining after treatment compared to untreated cells (PNPLA3 mRNA [2]; H Hep Donor-2, 1 uM (stated in cell)): 0.4 (1 uM); PNPLA3 mRNA remaining after treatment compared to untreated cells (PNPLA3 mRNA [2]; H Hep Donor-4, 1 uM): 0.6
CO[C@H]1C[C@@H]2CC[C@@H](C)[C@@](O)(O2)C(=O)C(=O)N2CCCC[C@H]2C(=O)O[C@H]([C@H](C)C[C@@H]2CC[C@@H](OP(C)(C)=O)[C@H](OC)C2)CC(=O)[C@H](C)/C=C(\C)[C@@H](O)[C@@H](OC)C(=O)[C@H](C)C[C@H](C)/C=C/C=C/C=C/1C [Deforolimus]	0.30 ± 0.10									
